From patent US11000604B2, “Reagent for site-selective bioconjugation of proteins or antibodies” (Research Foundation of the City University of New York, priority 2017, dated 2021)

Assays:
Format in all cases: physicochemical
[1] = Stability of PODS solutions in DMSO; conditions: solution in DMSO, room temperature
Method: All intermediates were obtained in >95% purity using minimal equipment and simple procedures without chromatographic purifications. The methyl thioether 1 was obtained quantitatively via the methylation of the thiol with methyl iodide; unfortunately, we were not able to replace the use of the toxic methyl iodide with any safer reagent. The coupling between 1 and the carboxylic acid-bearing PEG chain was performed using EDCI as a coupling agent. Overnight reaction at room temperature led to the complete consumption of the starting material but also the formation of degradation products. It was possible to separate 2 from the two unidentified impurities by precipitating it with a mixture of ethyl acetate and cyclohexane. The oxidation of 2 was performed using the peracid mCPBA. This lead to the formation of the methylsulfone 3 with a yield of 90%. Finally, PODS was obtained from 3 after the quantitative deprotection of the terminal amine using a solution of trifluoroacetic acid in dichloromethane. Solutions of PODS in DMSO were stable at room temperature and have been kept at room temperature for 5 months without any noticeable signs of degradation.

[2] = Reaction of PODS with glutathione; conditions: pH 7.5
Method: (§1) The reaction between PODS and Boc-L-cysteine was quantitative in less than 2 minutes at pH 7.5. See FIG. 3A, FIG. 3B and FIG. 3C. In a move toward a model closer to proteins and peptides, a tripeptide containing a central cysteine—glutathione—was reacted with PODS as well. Again, the conjugation reaction reached completion before the first measurement could be acquired (<3 min at pH 7.5).

[3] = Reaction of PODS with model thiol Boc-L-cysteine (with TCEP); conditions: pH 7.5, TCEP
Method: In order to study the reactivity of PODS with thiols, Boc-L-cysteine was used as a model thiol in conjunction with the mild reducing agent tris(2-carboxyethyl)phosphine (TCEP), whose role was the reduction of any latent cystine species in solution (FIG. 2).
as §1

time kept without any noticeable signs of degradation [1]: ≥ 5 months
Structure (SMILES): CS(=O)(=O)c1nnc(-c2ccc(NC(=O)CCC(=O)NCCCOCCOCCOCCCN)cc2)o1 [PODS, N^1-(3-(2-(2-(3-Aminopropoxy)ethoxy)ethoxy)propyl)-N′-(4-(5-(methylsulfonyl)-1,3,4 oxadiazol-2-yl)phenyl)succinamide]
time to completion of conjugation reaction with glutathione [2]: < 3 min | time to quantitative reaction with Boc-L-cysteine [3]: less than 2 minutes
